# Assay results taken from US20230346988A1, “SYSTEMS FOR IN VIVO MONITORING OF IMMUNE CELLS IN PATIENTS UNDERGOING CELLULAR IMMUNOTHERAPY” (Memorial Sloan Kettering Cancer Center, priority 2020, published 2023).
# System: antitumor/anti-DOTA IgG-scFv
# Experiment: Affinity measurement of DOTA-PEG6 Biotin by surface plasmon resonance (Biacore)
# Details: SA chip coated with DOTA-PEG6 Biotin, 1:1 binding model
# Text: Affinity measurement of […] by Surface Plasmon Resonance (Biacore). sBiacore T-100 Biosensor, streptavidin (SA) sensor chip, and related reagents were purchased from GE Healthcare. The SA chip coated with […] and then flowed over with an antitumor/anti-DOTA IgG-scFv. The KDs were generated from a sensorgram data series consisting of 6 concentrations of anti-tumor/anti-DOTA IgG-scFv, by fitting to a 1:1 binding model using the Biacore T-100 evaluation software.
smiles,measurement,setting,value
O=C(O)CN1CCN(CC(=O)O)CCN(CC(=O)O)C(Cc2ccc(NC(=S)NCCOCCOCCOCCOCCOCCOCCNC(=O)CCCCC3SC[C@@H]4NC(=O)N[C@H]34)cc2)CN(CC(=O)O)CC1 (stereo partly shown) [DOTA-PEG6 Biotin],t½,,3.811 h
same,Kd,6 concentrations of IgG-scFv,0.0686 nM
same,ka,6 concentrations of IgG-scFv,736000 M⁻¹ s⁻¹
same,kd,6 concentrations of IgG-scFv,5.05e-05 s⁻¹
